Experimental findings from patent US11090304B2 (Amgen Inc., priority 2018, dated 2021) are described below.

Test [1] addresses GDP-bound KRAS protein (aa 1-169), containing both G12C and C118A amino acid substitutions (Homo sapiens, UniProt P01116, C118A/G12C). Kind of test: Coupled nucleotide exchange assay (SOS-mediated, AlphaScreen). In kind it is biochemical. Particulars: 5 min compound pre-incubation.
The test system of test [2] is Phosphorylation of ERK1/2 in MIA PaCa-2 cells. Kind of test: Phospho-ERK1/2 MSD assay in MIA PaCa-2 cells. Particulars: read-out: p-ERK IC50 (2 h; MIA PaCa-2), 2 h compound treatment. In kind it is cell-based. The procedure, abridged: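 IC50 comes from a 4-parameter logistic fit of MSD phospho-ERK1/2 signal in lysates. Before lysis, MIA PaCa-2 or A549 cells were exposed to titrated compound for 2 or 4 h at 37 °C, followed by a 10 min 10 ng/mL EGF stimulus.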

Where two headings read alike, the source gives them in different places.

GDP-bound KRAS protein (aa 1-169), containing both G12C and C118A amino acid substitutions, sequence (P01116 1-169 isoform P01116-2 G12C/C118A): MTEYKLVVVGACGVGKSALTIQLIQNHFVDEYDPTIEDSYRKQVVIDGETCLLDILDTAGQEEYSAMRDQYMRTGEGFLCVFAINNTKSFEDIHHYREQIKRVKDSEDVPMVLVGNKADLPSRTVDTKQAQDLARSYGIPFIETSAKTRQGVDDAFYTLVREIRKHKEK

Take `C=CC(=O)N1CCN(c2nc(=O)n(-c3ccccc3C(C)C)c3nc(-c4ccccc4OC(F)F)c(Cl)cc23)[C@@H](C)C1` [Example 56-10, 6-chloro-7-(2-(difluoromethoxy)phenyl)-4-((2S)-2-methyl-4-(2-propenoyl)-1-piperazinyl)-1-(2-(2-propanyl)phenyl)pyrido[2,3-d]pyrimidin-2(1H)-one]: the “Coupled exchange IC50 (5 min)” value in test [1] is listed as 0.332 | nda μM. For the same compound, the IC50 in test [2] (Homo sapiens, MIA PaCa-2, 2 h) was determined as 260 nM.
Regarding `C=CC(=O)N1CCN(c2nc(=O)n(-c3c(OC)cccc3C(C)C)c3nc(-c4c(O)cccc4F)c(Cl)cc23)[C@@H](C)C1` (single isomer, unassigned) [Example 54-73-2], in test [1], the “Coupled exchange IC50 (5 min)” value is recorded as 0.368 | nda μM. Besides, the IC50 in test [2] worked out at 927 nM.
Consider `C=CC(=O)N1CCN(c2nc(=O)n(-c3c(C)ccnc3C(C)C)c3nc(-c4ccccc4F)c(Cl)cc23)CC1` (single isomer, unassigned) [Example 78-15, (M)-6-chloro-7-(2-fluorophenyl)-1-(4-methyl-2-(2-propanyl)-3-pyridinyl)-4-(4-(2-propenoyl)-1-piperazinyl)pyrido[2,3-d]pyrimidin-2(1H)-one], for which the “Coupled exchange IC50 (5 min)” value in test [1] is 0.124 | nda μM. For the same compound, the IC50 in test [2] (Homo sapiens, MIA PaCa-2, 2 h) came out at 61 nM.
As to `C=CC(=O)N1CCN(c2nc(=O)n(-c3c(C)ccnc3C(C)C)c3nc(-c4cc(O)c(F)cc4F)c(F)cc23)[C@@H](C)C1` (atropisomer, axis not shown; (M)) [Example 72-7, (M)-7-(2,4-difluoro-5-hydroxyphenyl)-6-fluoro-1-(4-methyl-2-(2-propanyl)-3-pyridinyl)-4-((2S)-2-methyl-4-(2-propenoyl)-1-piperazinyl)pyrido[2,3-d]pyrimidin-2(1H)-one], the “Coupled exchange IC50 (5 min)” value in test [1] is 0.262 | nda μM. In addition, the IC50 in test [2] (Homo sapiens, MIA PaCa-2, 2 h) came to 2240 nM.
Turning to `C=CC(=O)N1CCN(c2nc(=O)n(-c3cccnc3C(C)(C)C)c3nc(-c4c(O)cccc4F)c(Cl)cc23)[C@@H](C)C1` (single isomer, unassigned) [Example 54-103-1], in test [1], the “Coupled exchange IC50 (5 min)” value is reported as 0.073 | nda μM. Further, in test [2] (Homo sapiens, MIA PaCa-2, 2 h), the IC50 amounted to 93 nM.
As for `C=CC(=O)N1CCN(c2nc(=O)n(-c3c(C)nc(C)nc3C(C)C)c3nc(-c4c(O)cccc4F)c(Cl)cc23)[C@@H](C)C1` (single isomer, unassigned) [Example 55-4-1], the “Coupled exchange IC50 (5 min)” value in test [1] is reported as 0.023 | nda μM. In addition, in test [2] (Homo sapiens, MIA PaCa-2, 2 h), the IC50 amounted to 37 nM.
In the case of `C=CC(=O)N1CCN(c2nc(=O)n(-c3c(C)cccc3C(C)(C)C)c3nc(-c4c(O)cccc4F)c(F)cc23)[C@@H](C)C1` (single isomer, unassigned) [Example 57-17-1], the “Coupled exchange IC50 (5 min)” value in test [1] was 0.316 | nda μM. For the same compound, the IC50 in test [2] (Homo sapiens, MIA PaCa-2, 2 h) was 300 nM.
With `C=CC(=O)N1CCN(c2nc(=O)n(-c3cncnc3C3(C)CC3)c3nc(-c4c(O)cccc4F)c(Cl)cc23)[C@@H](C)C1` [Example 54-55, 6-chloro-7-(2-fluoro-6-hydroxyphenyl)-1-(4-(1-methyl-cyclopropyl)-5-pyrimidinyl)-4-((2S)-2-methyl-4-(2-propenoyl)-1-piperazinyl) pyrido[2,3-d]pyrimidin-2(1H)-one], in test [1], the “Coupled exchange IC50 (5 min)” value was 0.133 | nda μM. Also, the IC50 in test [2] (Homo sapiens, MIA PaCa-2, 2 h) came to 578 nM.
Taken in the same sequence, the figures for `C=CC(=O)N1CCN(c2nc(=O)n(-c3scnc3CC)c3nc(-c4ccccc4F)c(Cl)cc23)[C@@H](C)C1` [Example 60-21, 6-chloro-1-(4-ethyl-1,3-thiazol-5-yl)-7-(2-fluorophenyl)-4-((2S)-2-methyl-4-(2-propenoyl)-1-piperazinyl)pyrido[2,3-d]pyrimidin-2(1H)-one] were 0.35 | nda μM and 334 nM.
Taken in the same sequence, the figures for `C=CC(=O)N1CCN(c2nc(=O)n(-c3c(C)ccnc3C(C)C)c3nc(-c4cc(Cl)ccc4F)c(Cl)cc23)[C@@H](C)C1` (atropisomer, axis not shown; (M)) [Example 73-4, (M)-6-chloro-7-(5-chloro-2-fluorophenyl)-1-(4-methyl-2-(2-propanyl)-3-pyridinyl)-4-((2S)-2-methyl-4-(2-propenoyl)-1-piperazinyl)pyrido[2,3-d]pyrimidin-2(1H)-one] were 0.047 | nda μM and 62 nM.
For `C=CC(=O)N1C[C@@H](C)N(c2nc(=O)n(-c3c(C)ccnc3C(C)C)c3nc(-c4c(O)cccc4F)c(Cl)cc23)[C@@H](C)C1` (atropisomer, axis not shown; (M)) [Example 73-13, (M)-6-chloro-4-(cis-2,6-dimethyl-4-(2-propenoyl)-1-piperazinyl)-7-(2-fluoro-6-hydroxyphenyl)-1-(4-methyl-2-(2-propanyl)-3-pyridinyl)pyrido[2,3-d]pyrimidin-2(1H)-one], in test [1], the “Coupled exchange IC50 (5 min)” value is 0.023 | nda μM. Moreover, in test [2] (Homo sapiens, MIA PaCa-2, 2 h), the half-inhibitory concentration (IC50) was 17 nM.
Consider `C=CC(=O)N1CCN(c2nc(=O)n(-c3c(C)ccnc3C(C)C)c3nc(-c4cc(C#N)ccc4F)c(Cl)cc23)[C@@H](C)C1` (atropisomer, axis not shown; (M)) [Example 73-5, (M)-3-(6-chloro-1-(4-methyl-2-(2-propanyl)-3-pyridinyl)-4-((2S)-2-methyl-4-(2-propenoyl)-1-piperazinyl)-2-oxo-1,2-dihydropyrido[2,3-d]pyrimidin-7-yl)-4-fluorobenzonitrile], for which the “Coupled exchange IC50 (5 min)” value in test [1] is 0.184 | nda μM. Further, the IC50 in test [2] (Homo sapiens, MIA PaCa-2, 2 h) was found to be 228 nM.
In the case of `C=CC(=O)N1CCN(c2nc(=O)n(-c3c(CC)cccc3CC)c3cc(-c4ccccc4F)c(Cl)cc23)[C@@H](C)C1` [Example 103, 6-Chloro-1-(2,6-diethylphenyl)-7-(2-fluorophenyl)-4-((2S)-2-methyl-4-(2-propenoyl)-1-piperazinyl)-2(1H)-quinazolinone], in test [1], the “Coupled exchange IC50 (5 min)” value was 0.099 | nda μM. The IC50 in test [2] (Homo sapiens, MIA PaCa-2, 2 h) was found to be 178 nM.
On to `C=CC(=O)N1CCN(c2nc(=O)n(-c3c(C)cccc3CC)c3nc(-c4ccccc4F)c(Cl)cc23)[C@@H](C)C1` [Example 55-9, 6-chloro-1-(2-ethyl-6-methylphenyl)-7-(2-fluorophenyl)-4-((2S)-2-methyl-4-(2-propenoyl)-1-piperazinyl)pyrido[2,3-d]pyrimidin-2(1H)-one], for which the “Coupled exchange IC50 (5 min)” value in test [1] is recorded as 0.24 | nda μM. For the same compound, the IC50 in test [2] (Homo sapiens, MIA PaCa-2, 2 h) amounted to 214 nM.
Taken in the same sequence, the figures for `C=CC(=O)N1CCN(c2nc(=O)n(-c3c(F)cccc3C(C)C)c3nc(-c4c(O)cccc4F)c(F)cc23)[C@@H](C)C1` [Example 59-2, 6-fluoro-7-(2-fluoro-6-hydroxyphenyl)-1-(2-fluoro-6-(2-propanyl)phenyl)-4-((2S)-2-methyl-4-(2-propenoyl)-1-piperazinyl)pyrido[2,3-d]pyrimidin-2(1H)-one] were 0.257 | nda μM and 737 nM.
On to `C=CC(=O)N1CCN(c2nc(=O)n(-c3ccccc3C(C)C)c3nc(-c4ccc(F)cc4F)c(Cl)cc23)[C@@H](C)C1` (single isomer, unassigned) [Example 54-85-1], for which, in test [1], the “Coupled exchange IC50 (5 min)” value is given as 3.4 | nda μM. In test [2], the IC50 was determined as 1510 nM.
`C=CC(=O)N1CCN(c2nc(=O)n(-c3ccccc3C(C)C)c3nc(-c4cc(N)ccc4Cl)c(Cl)cc23)[C@@H](C)C1` [Example 56-7, 7-(5-amino-2-chlorophenyl)-6-chloro-4-((2S)-2-methyl-4-(2-propenoyl)-1-piperazinyl)-1-(2-(2-propanyl)phenyl)pyrido[2,3-d]pyrimidin-2(1H)-one]: the “Coupled exchange IC50 (5 min)” value in test [1] is on record as 0.11 | nda μM. Moreover, the IC50 in test [2] (Homo sapiens, MIA PaCa-2, 2 h) worked out at 69 nM.
